Test results published in US10800741B2 (ANCUREALL PHARMACEUTICAL (SHANGHAI) CO., LTD., priority 2017, dated 2020).
pIC50: −log10 of the molar value.

Tests used:
H1581 (FGFR1 amp) = experiment: In vitro growth inhibition of H1581 tumor cells (MTT/CCK8); assay type: cell-based, Human; conditions: Homo sapiens, NCI-H1581; in vitro growth inhibition (or induction of apoptosis), cells cultured 3 to 5 days, MTT (CCK8); read-out: IC50 H1581 (FGFR1 amp)
KATO III (FGFR2 amp) = experiment: In vitro growth inhibition of KATO III tumor cells (MTT/CCK8); assay type: cell-based, Human; conditions: Homo sapiens, KATO III; in vitro growth inhibition (or induction of apoptosis), cells cultured 3 to 5 days, MTT (CCK8); read-out: IC50 KATO III (FGFR2 amp)
Hep3B2 (FGFR3/4+++) = experiment: In vitro growth inhibition of Hep3B2 tumor cells (MTT/CCK8); assay type: cell-based, Human; conditions: Homo sapiens, Hep3B; in vitro growth inhibition (or induction of apoptosis), cells cultured 3 to 5 days, MTT (CCK8); read-out: IC50 Hep3B2 (FGFR3/4+++)
MOLM-13 (FLT3-ITD) = experiment: In vitro growth inhibition of MOLM-13 tumor cells (MTT/CCK8); assay type: cell-based, Human; conditions: Homo sapiens, MOLM-13; in vitro growth inhibition (or induction of apoptosis), cells cultured 3 to 5 days, MTT (CCK8); read-out: IC50 MOLM-13 (FLT3-ITD)
KCL-22 (BCR-ABL) = experiment: In vitro growth inhibition of KCL-22 tumor cells (MTT/CCK8); assay type: cell-based, Human; conditions: Homo sapiens, KCL-22; in vitro growth inhibition (or induction of apoptosis), cells cultured 3 to 5 days, MTT (CCK8); read-out: IC50 KCL-22 (BCR-ABL)
Kasumi-1 (KIT N822K) = experiment: In vitro growth inhibition of Kasumi-1 tumor cells (MTT/CCK8); assay type: cell-based, Human; conditions: Homo sapiens, Kasumi 1; in vitro growth inhibition (or induction of apoptosis), cells cultured 3 to 5 days, MTT (CCK8); read-out: IC50 Kasumi-1 (KIT N822K)
H1703 (PDGFRa amp) = experiment: In vitro growth inhibition of H1703 tumor cells (MTT/CCK8); assay type: cell-based, Human; conditions: Homo sapiens, NCI-H1703; in vitro growth inhibition (or induction of apoptosis), cells cultured 3 to 5 days, MTT (CCK8); read-out: IC50 H1703 (PDGFRa amp)
Karpas 299 (NPM-ALK) = experiment: In vitro growth inhibition of Karpas 299 tumor cells (MTT/CCK8); assay type: cell-based, Human; conditions: Homo sapiens, KARPAS-299; in vitro growth inhibition (or induction of apoptosis), cells cultured 3 to 5 days, MTT (CCK8); read-out: IC50 Karpas 299 (NPM-ALK)
RS4:11 = experiment: In vitro growth inhibition of FLT3 wild type overexpressing cells RS4:11; assay type: cell-based; conditions: Homo sapiens, cells over expressing FLT3 wild-type
Description: (§1) Adherent cells were digested with 0.25% trypsin-EDTA (Gibco). Suspension culture cells were collected by centrifugation (1700 rpm, 3 minutes). The supernatant was discarded and the cells were counted. According to each cell growth cycle, different concentrations of cells were prepared (5˜10×10^4 cells per ml), and inoculated to 96-well plates (Corning), with 100 μl per well, and incubated overnight at 37° C., 5% CO2. The next day, the test compound was added to the cultured cells (2 wells in parallel). The final concentration of the solvent was less than 1/1,000. The cells were further cultured for 3 to 5 days and assayed by MTT.
(§2) The MTT test reagent was a Dojindo CCK8 kit and the Microplate Reader was a THERMO […] FC instrument.
(§3) The adherent cells were taken out from the cell culture medium, and immediately added to a freshly prepared complete medium containing 10% CCK8 (5% FBS), 100 ul per hole. The suspended cells were directly added to a CCK8 reagent until reaching a final concentration of 10% and cultured for 1 to 4 hours. When a dark yellow color could be observed in the solvent control wells, the absorbance value at OD450 nm was measured and the cell growth rate was calculated according to the following formula: Cell Growth Rate (%)=100×(T−T0)/(C−T0)
(§4) T=optical density of drug-treated cell wells−optical density of blank control wells; T0=optical density of cell wells before drug treatment−optical density of blank control wells; C=optical density of solvent control wells−optical density of blank control wells. […] The experiments were repeated 1 to 3 times and a statistical analysis of data was conducted.
(§5) The present compounds which has a high growth inhibition activity on tumor cells positive expressing FLT3-ITD were selected for the determination of IC50 concentration on FLT3 wild tyoverexpressing cells RS4:11 and FLT3 wild-type normal expressing cells Jurkat. The specific test method is the same as that of test example 1.

Jurkat = experiment: In vitro growth inhibition of FLT3 wild-type normal expressing cells Jurkat; assay type: cell-based; conditions: Homo sapiens, cells normally expressing FLT3 wild-type
Description: as §1, §2, §3, §4, §5

[1] = system: human intestinal cancer cell line HCT116 (KRAS G13D mutation); experiment: Growth inhibition in combination with MEK1/2 inhibitor Trametinib, HCT116 (KRAS G13D mutation); assay type: cell-based; conditions: 5 days
Description: (§6) Test Example 5 Synergistic Inhibition Effect of the Present Compounds in Combination with MEK1/2 Inhibitor on the Growth of RAS Mutant Tumor Cells In Vitro
(§7) The cell culture, drug treatment and MTT assay of human intestinal cancer cell line HCT116 (KRAS G13D mutation) and human non-small cell lung cancer cell line NCI-H1299 (NRAS Q61K mutation) were performed according to the method of test example 1. Cells were treated with the MEK1/2 inhibitor Trametinib at 25 nM, 2.5 nM and 0.25 nM alone or in combination with compound 66 or 125 of the present invention (5 days).

[2] = system: human non-small cell lung cancer cell line NCI-H1299 (NRAS Q61K mutation); experiment: Growth inhibition in combination with MEK1/2 inhibitor Trametinib, NCI-H1299 (NRAS Q61K mutation); assay type: cell-based; conditions: 5 days
Description: as §6, §7

[3] = compound 7.8 nM + Trametinib 0.25 nM
[4] = compound 7.8 nM + Trametinib 2.5 nM
[5] = compound 7.8 nM + Trametinib 25 nM
[6] = compound 15.6 nM + Trametinib 0.25 nM
[7] = compound 15.6 nM + Trametinib 2.5 nM
[8] = compound 15.6 nM + Trametinib 25 nM

Compound | pIC50 (H1581 (FGFR1 amp)) | pIC50 (KATO III (FGFR2 amp)) | pIC50 (Hep3B2 (FGFR3/4+++)) | pIC50 (MOLM-13 (FLT3-ITD)) | pIC50 (KCL-22 (BCR-ABL)) | pIC50 (Kasumi-1 (KIT N822K)) | pIC50 (H1703 (PDGFRa amp)) | pIC50 (Karpas 299 (NPM-ALK)) | pIC50 (RS4:11) | pIC50 (Jurkat) | also measured
COc1cc2nccc(Oc3ccc(NC(=O)Nc4cc(C(C)(C)C)on4)cc3)c2cc1C(N)=O [Compound 1, 4-{4-[3-(5-tert-butyl-isoxazol-3-yl)-ureido]-phenoxy}-7-methoxyquinolin-6-carboxamide] | 7.79 | 8.89 | 6.55 | > 10.30 | 7.19 | 7.05 | 8.02 | 6.40 | 6.73 | 6.28 | –
COc1cc2nccc(Oc3ccc(NC(=O)Nc4cc(C(C)(C)C)on4)cc3Br)c2cc1C(N)=O [Compound 7, 4-{2-Bromo-4-[3-(5-tert-butyl-isoxazol-3-yl)-ureido]-phenoxy}-7-methoxyquinolin-6-carboxamide] | 7.26 | 8.20 | 7.08 | > 10.30 | 7.70 | 7.34 | 7.71 | 6.73 | 6.43 | 6.52 | –
COc1cc2nccc(Oc3ccc(NC(=O)Nc4cc(C(C)(C)C)on4)cc3Cl)c2cc1C(N)=O [Compound 8, 4-{4-[3-(5-tert-butyl-isoxazol-3-yl)-ureido]-2-chloro-phenoxy}-7-methoxyquinolin-6-carboxamide] | 7.71 | 8.53 | 7.34 | > 10.30 | 7.73 | 7.45 | 7.76 | 6.85 | 6.43 | 6.54 | –
COc1cc2nccc(Oc3ccc(NC(=O)Nc4cc(C(C)(C)C)on4)cc3F)c2cc1C(N)=O [Compound 9, 4-{4-[3-(5-tert-butyl-isoxazol-3-yl)-ureido]-2-fluoro-phenoxy}-7-methoxyquinolin-6-carboxamide] | 8.02 | 8.86 | 7.32 | > 10.30 | 7.45 | 6.84 | 7.73 | 6.45 | 6.12 | 6.39 | –
CNC(=O)c1cc2c(Oc3ccc(NC(=O)Nc4cc(C(C)(C)C)n[nH]4)cc3Cl)ccnc2cc1OC [Compound 54, 4-{4-[3-(5-tert-butyl-2H-pyrazol-3-yl)-ureido]-2-chloro-phenoxy}-7-methoxyquinolin-6-carboxylic acid methylamide] | 7.27 | 8.26 | 6.81 | 9.57 | 7.62 | 7.58 | 7.15 | 6.95 | 6.27 | – | –
COc1cc2nccc(Oc3ccc(NC(=O)Nc4cc(C(C)(C)C)n[nH]4)cc3F)c2cc1NC(C)=O [Compound 102, N-(4-{4-[3-(5-tert-butyl-2H-pyrazol-3-yl)-ureido]-2-fluoro-phenoxy}-7-methoxy-quinolin-6-yl)-acetamide] | 8.08 | 8.88 | 7.12 | > 10.30 | 7.99 | 7.01 | 7.15 | < 6.00 | 6.30 | – | –
COCCOc1cc2nccc(Oc3ccc(NC(=O)Nc4cc(C(C)(C)C)nn4C4CC4)c(Cl)c3)c2cc1NC(C)=O [Compound 125] | 8.97 | 9.64 | – | 8.92 | – | – | – | – | – | – | inhibition at 0.0078 µM ([1]; Homo sapiens, HCT-116, 120 h, compound 7.8 nM alone (solvent instead of Trametinib), read-out: cell growth inhibition (percentage)): 14.5%; inhibition at 0.0156 µM ([1]; Homo sapiens, HCT-116, 120 h, compound 15.6 nM alone (solvent instead of Trametinib), read-out: cell growth inhibition (percentage)): 19.9%; cell growth inhibition (percentage) [1, 3]: 62.54%; cell growth inhibition (percentage) [1, 4]: 76.01%; cell growth inhibition (percentage) [1, 5]: 82.04%; cell growth inhibition (percentage) [1, 6]: 71.98%; cell growth inhibition (percentage) [1, 7]: 79.72%; cell growth inhibition (percentage) [1, 8]: 82.82%; inhibition at 0.0078 µM ([2]; Homo sapiens, NCI-H1299, 120 h, compound 7.8 nM alone (solvent instead of Trametinib), read-out: cell growth inhibition (percentage)): 1.63%; inhibition at 0.0156 µM ([2]; Homo sapiens, NCI-H1299, 120 h, compound 15.6 nM alone (solvent instead of Trametinib), read-out: cell growth inhibition (percentage)): 6.5%; cell growth inhibition (percentage) [2, 3]: 9.27%; cell growth inhibition (percentage) [2, 4]: 24.38%; cell growth inhibition (percentage) [2, 5]: 46.25%; cell growth inhibition (percentage) [2, 6]: 19.92%; cell growth inhibition (percentage) [2, 7]: 34.72%; cell growth inhibition (percentage) [2, 8]: 58.26%
CC(=O)Nc1cccc(-n2c(=O)n(C3CC3)c(=O)c3c(Nc4ccc(I)cc4F)n(C)c(=O)c(C)c32)c1 [Trametinib, reference compound] | – | – | – | – | – | – | – | – | – | – | inhibition at 0.00025 µM ([1]; Homo sapiens, HCT-116, 120 h, Trametinib 0.25 nM alone, read-out: cell growth inhibition (percentage)): 12.1%; inhibition at 0.0025 µM ([1]; Homo sapiens, HCT-116, 120 h, Trametinib 2.5 nM alone, read-out: cell growth inhibition (percentage)): 27.7%; inhibition at 0.025 µM ([1]; Homo sapiens, HCT-116, 120 h, Trametinib 25 nM alone, read-out: cell growth inhibition (percentage)): 75.1%; inhibition at 0.00025 µM ([2]; Homo sapiens, NCI-H1299, 120 h, Trametinib 0.25 nM alone, read-out: cell growth inhibition (percentage)): 2.2%; inhibition at 0.0025 µM ([2]; Homo sapiens, NCI-H1299, 120 h, Trametinib 2.5 nM alone, read-out: cell growth inhibition (percentage)): 6.31%; inhibition at 0.025 µM ([2]; Homo sapiens, NCI-H1299, 120 h, Trametinib 25 nM alone, read-out: cell growth inhibition (percentage)): 15.5%
